From patent publication US9023844B2, “Heterocyclylpyri (mi) dinylpyrazole as fungicidals” (Bayer Intellectual Property GmbH, priority 2011, dated 2015)
Where two headings read alike, the source gives them in different places.

Legend:
[1] = tested on: DON/Acetyl-DON production by Fusarium graminearum; test: microbe, parasite or virus in culture; assay type: cell-based; details: at 50 μM
Pyrenophora teres = test: Example D: Pyrenophora test (barley) / preventive; assay type: in vivo; details: in vivo
Fusarium graminearum [2] = test: microbe, parasite or virus in culture; assay type: cell-based; details: for Growth inhibition of Fusarium graminearum in %: at 50 μM
[3] = Determination of log P values by HPLC on a reverse phase column (C18), EEC-Directive 79/831 Annex V.A8 (Methods A, B, C); assay type: physicochemical; details: for chromatographic logP: reverse phase C18 HPLC column
How it was run: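 LogP was determined by C18 reverse-phase HPLC/UPLC with acetonitrile/water eluents containing formic acid. Method A used a 10–95% acetonitrile gradient over 4.25 min at 55 °C and 2.0 mL/min. Method B used 5–95% over 1.70 min at 55 °C and 2.0 mL/min, and Method C used 10–95% over 3.25 min at 40 °C and 0.8 mL/min, with MS detection.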

Pyricularia oryzae = assay type: in vivo; details: in vivo
Leptosphaeria nodorum = test: Example C: Leptosphaeria test (wheat) / preventive; assay type: in vivo; details: in vivo
Sphaerotheca fuliginea = test: Example A: Sphaerotheca test (cucumber) / preventive; assay type: in vivo; details: in vivo
Puccinia recondita = test: Example E: Puccinia test (wheat) / preventive; assay type: in vivo; details: in vivo
Uromyces appendiculatus = test: Example B: Uromyces test (beans) / preventive; assay type: in vivo; details: in vivo
Septoria tritici = test: Example J: Septoria tritici test (wheat) / preventive; assay type: in vivo; details: in vivo
[4] = tested on: Fusarium nivale (var. majus); test: Example K: Fusarium nivale (var. majus) test (wheat) / preventive; assay type: in vivo; details: 500 ppm of active ingredient, preventive spray, evaluated 5 days after inoculation
Protocol: After the spray coating has been dried, the plants are slightly injured by using a sandblast and afterwards they are sprayed with a conidia suspension of Fusarium nivale (var. majus).
The test is evaluated 5 days after the inoculation.

Fusarium graminearum [5] = assay type: in vivo; details: in vivo
[6] = Method B (HPLC, reverse phase C18)
[7] = Method C (HPLC, reverse phase C18)

Row | SMILES | Inhibition of DON/AcDON in % [1] [%] | efficacy (Pyrenophora teres) [%] | Growth inhibition of Fusarium graminearum in % (Fusarium graminearum [2]) [%] | LogP [3, 6] | efficacy (Pyricularia oryzae) [%] | efficacy (Leptosphaeria nodorum) [%] | efficacy (Sphaerotheca fuliginea) [%] | efficacy (Puccinia recondita) [%] | efficacy (Uromyces appendiculatus) [%] | efficacy (Septoria tritici) [%] | efficacy [4] [%] | efficacy (Fusarium graminearum [5]) [%] | inhibition at 50 µM ([1]; Fusarium graminearum, read-out: Inhibition of DON/AcDON in %) [%] | inhibition at 50 µM (Fusarium graminearum [2]; Fusarium graminearum, read-out: Growth inhibition of Fusarium graminearum in %) [%] | chromatographic logP ([3]; Method C (HPLC, reverse phase C18), read-out: LogP) | chromatographic logP ([3]; pH 2.7, values in the synthesis examples, HPLC, reverse phase C18, read-out: log P (pH 2.7)) | LogP [3, 7]
1 | CC(=O)Nc1cc(-c2c(-c3ccc(F)cc3)nn3c2OCC3)ccn1 [Example 1] | 98 | 95 | 90 | 1.19 | 70 | 88 | 75 |  |  |  |  |  |  |  |  |  | 
2 | O=C(Nc1cc(-c2c(-c3ccccc3)nn3c2OCCC3)ccn1)C1CC1 [Example 7] |  | 95 |  | 1.25 | 94 | 90 | 95 | 100 | 94 |  |  |  |  |  |  |  | 
3 | C[C@H](O)C(=O)Nc1cc(-c2c(-c3ccccc3)nn3c2OCCC3)ccn1 [Example 12] |  | 100 |  | 1.2 | 100 | 80 | 83 | 100 | 94 | 100 | 93 | 86 |  |  |  |  | 
4 | O=C(CC1CC1)Nc1cc(-c2c(-c3ccccc3)nn3c2OCCC3)ccn1 [Example 13] |  | 95 |  | 1.54 | 100 |  | 70 | 95 | 92 | 100 |  | 71 |  |  |  |  | 
5 | O=C(Nc1cc(-c2c(-c3ccccc3)nn3c2OCCC3)ccn1)C1CCOCC1 [Example 14] | 100 | 95 | 95 | 1.22 | 94 | 95 | 100 | 100 | 94 | 100 | 100 | 86 |  |  |  |  | 
6 | CC(C(=O)Nc1cc(-c2c(-c3ccccc3)nn3c2OCCC3)ccn1)c1ccc(F)cc1 (stereo not drawn) [Example 18] |  | 95 |  | 2.27 | 94 | 90 | 93 | 95 | 94 |  |  |  |  |  |  |  | 
7 | CC(C)(C)CC(=O)Nc1cc(-c2c(-c3ccccc3)nn3c2OCCC3)ccn1 [Example 20] |  | 95 |  | 1.88 | 94 | 95 | 100 | 100 | 97 |  |  |  |  |  |  |  | 
8 | O=C(Nc1cc(-c2c(-c3ccccc3)nn3c2OCCC3)ccn1)C1(Cl)CC1 [Example 21] |  | 100 |  | 2.62 | 89 | 70 | 93 | 89 |  |  |  |  |  |  |  |  | 
9 | CCC(C)C(=O)Nc1cc(-c2c(-c3ccc(F)cc3)nn3c2OCCC3)ccn1 (stereo not drawn) [Example 24] | 94 | 95 | 91 | 1.82 | 94 | 95 | 98 | 100 | 94 | 100 | 100 | 90 |  |  |  |  | 
10 | O=C(CC1CC1)Nc1cc(-c2c(-c3ccc(F)cc3)nn3c2OCCC3)ccn1 [Example 27] |  | 95 |  | 1.69 | 100 | 90 | 95 | 100 |  | 100 |  | 86 |  |  |  |  | 
11 | CSCC(=O)Nc1cc(-c2c(-c3ccc(F)cc3)nn3c2OCCC3)ccn1 [Example 30] |  | 95 |  | 1.72 | 94 | 70 | 98 | 100 |  |  |  |  |  |  |  |  | 
12 | O=C(CC(F)(F)F)Nc1cc(-c2c(-c3ccc(F)cc3)nn3c2OCCC3)ccn1 [Example 31] |  | 95 |  | 2.13 | 94 |  | 88 | 100 | 92 | 100 | 100 | 86 |  |  |  |  | 
13 | CC(C)(C)CC(=O)Nc1cc(-c2c(-c3ccc(F)cc3)nn3c2OCCC3)ccn1 [Example 34] |  | 100 |  | 2.04 | 94 | 90 | 95 | 100 | 94 | 88 | 75 | 86 |  |  |  |  | 
14 | O=C(Nc1cc(-c2c(-c3ccc(F)cc3F)nn3c2OCCC3)ccn1)C1CC1 [Example 36] |  | 95 |  | 1.42 | 94 | 90 | 100 | 100 | 92 | 88 | 88 | 100 |  |  |  |  | 
15 | CCC(C)C(=O)Nc1cc(-c2c(-c3ccc(F)cc3F)nn3c2OCCC3)ccn1 (stereo not drawn) [Example 39] | 99 | 95 | 89 | 1.85 | 94 |  | 98 | 100 | 94 |  |  |  |  |  |  |  | 
16 | CC(C)CC(=O)Nc1cc(-c2c(-c3ccc(F)cc3F)nn3c2OCCC3)ccn1 [Example 40] | 99 | 95 | 85 | 1.88 | 94 |  | 98 | 100 | 94 |  |  |  |  |  |  |  | 
17 | CSCC(=O)Nc1cc(-c2c(-c3ccc(F)cc3F)nn3c2OCCC3)ccn1 [Example 45] | 100 | 90 | 78 | 1.75 | 94 |  | 95 | 90 | 92 |  |  |  |  |  |  |  | 
18 | O=C(CC(F)(F)F)Nc1cc(-c2c(-c3ccc(F)cc3F)nn3c2OCCC3)ccn1 [Example 46] |  | 90 |  | 2.13 | 94 |  |  | 100 | 94 | 88 |  | 86 |  |  |  |  | 
19 | CC(C)(C)CC(=O)Nc1cc(-c2c(-c3ccc(F)cc3F)nn3c2OCCC3)ccn1 [Example 49] |  | 95 |  | 2.1 | 94 | 90 | 93 | 95 | 94 |  |  |  |  |  |  |  | 
20 | CC(=O)Nc1cc(-c2c(-c3ccccc3)nn3cccnc23)ccn1 [Example 51, N-[4-(2-phenylpyrazolo[1,5-a]pyrimidin-3-yl)pyridin-2-yl]acetamide] |  |  |  |  |  |  |  |  |  |  |  |  | 100 | 90 | 1.41 | 1.41 | 
21 | O=C(Nc1cc(-c2c(-c3ccc(F)cc3)nn3c2OCCC3)ccn1)C(=O)N1CCCCC1 [Example 70] | 90 |  | 76 | 2.23 |  |  |  |  |  |  |  |  |  |  |  |  | 
22 | CCC(=O)Nc1cc(-c2c(-c3ccc(F)cc3)nn3c2NCCC3)ccn1 [Example 80] | 100 | 100 |  |  | 90 |  | 93 |  | 78 |  |  |  |  |  |  |  | 1.35
23 | O=C(C1CC1)N(C(=O)C1CC1)c1cc(-c2c(-c3ccc(F)cc3)nn3cccnc23)ccn1 [Example 84] |  | 90 |  |  | 90 |  | 88 |  |  | 88 | 100 | 83 |  |  |  |  | 2.94
24 | O=C(Nc1cc(-c2c(-c3ccc(F)cc3)nn3cccnc23)ccn1)C1CC1 [Example 88] | 70 | 95 | 55 |  | 90 |  | 93 |  |  |  |  |  |  |  |  |  | 1.75
25 | CC(C)C(=O)N(C(=O)C(C)C)c1cc(-c2c(-c3ccccc3)nn3c2NCCC3)ccn1 [Example 92] | 99 |  |  |  |  |  | 100 | 78 | 78 |  |  |  |  |  |  |  | 3.08
26 | CC(C)C(=O)Nc1cc(-c2c(-c3ccsc3)nn3c2OC[Si](C)(C)C3)ccn1 [Example 101] | 100 | 100 | 93 |  | 80 | 80 |  |  | 75 |  |  |  |  |  |  |  | 2.11
